# Experimental data reported in patent EP2077274A1, “Synthetic analogs of human beta-defensins having antimicrobial, antiviral and chemotactic activity” (Ceinge Biotecnologie Avanzate s.c. a r.l., priority 2008, dated 2009).
# No end group written: not given here.
# Columns and labels:
# HSV-1 = HSV-1 infectivity plaque assay on Vero cell monolayers (co-exposure, virus pre-treatment, cell pre-exposure); type: cell-based; conditions: for % of infectivity: peptide 20 µM, mean and SD of 3 replicates
# Description: Vero cells were grown in Dulbecco's modified Eagle's medium (DMEM) supplemented with 10% foetal calf serum. HSV-1 carrying a IacZ gene driven by the cytomegalovirus (CMV) IE-1 promoter to express beta-galactosidase was propagated as described (33). Peptides were dissolved in DMEM with serum and used at different concentrations. All experiments were conducted in parallel with scrambled peptides and no-peptide controls. […] Non-penetrated viruses were inactivated by citrate buffer at pH 3.0 after the 45 min incubation with cells at 37°C. The cells were then incubated for 48 h at 37°C in DMEM supplemented with carboxymethylcellulose (CMC). Monolayers were fixed, stained with 5-bromo-4-chloro-3-indolyl-beta-D-galactopyranoside (X-gal) and plaque numbers were scored. Experiments were performed in triplicate and the percentage of inhibition was calculated with respect to no-peptide control experiments. ii) For "virus pre-treatment" experiments, approximately 2 x 10^4 plaque forming units (PFU) of HSV-1 were incubated in the presence of 20 µM of peptides for 45 min at 37°C, then titrated on Vero cell monolayers. iii) For "cell pre-exposure" experiments, Vero cells were incubated with 20 µM of peptides for 30 min at 4°C. Peptides were removed, and cells were washed with phosphate-buffered saline before being infected with serial dilutions of HSV-1 and incubated for 45 min at 37°C.
# Monolayers were exposed to different concentrations (10, 50, 100, 250 and 500 µM) of each peptide for 24 h, and cell viability was evaluated with the LDH assay. There was no significant difference between the viability of cells exposed to the peptides and that of cells exposed to control (data not shown). Thus, we evaluated the antiviral activity of wild type peptides and their analogs in: co-exposure experiments (cell + virus + peptide at zero time); virus pre-treatment (virus + peptide incubation before cell infection); and cell pre-exposure (cell + peptide incubation before virus infection). This would allow to evaluate if, and in which phase, the peptides could inhibit the virus infectivity.
# For co-exposure experiments, we incubated the peptides on the monolayers of Vero cells together with the virus inoculum for 45 min before low pH treatment. The reduced form of wild-type hBD1 and hBD3 and analogs 1C, 1 N, 3C, 3N were used in all subsequent experiments. […] No control (peptide excluded) inhibited HSV-1 infectivity under similar experimental conditions.
# monocytes = assay: Chemotaxis assay (leukocyte migration, calcein fluorescence); type: cell-based, human
# Description: (§1) Preparation of leukocytes-Monocytes and neutrophils were isolated as described in the StemSep Cell Technical Manual (Stem Cell Technologies, Vancouver, Canada). Briefly, to obtain neutrophils, buffy coats were diluted 1:20 in NH4Cl supplemented with 2 mM EDTA and incubated on ice for 20 min. Cell suspensions were centrifuged for 10 min at 600 X g at room temperature with the brake off and washed three times with phosphate buffered saline (PBS) supplemented with 2% foetal bovine serum and 2 mM EDTA. Cell viability was assessed by analysis of light scatter properties, and cell count was performed using a logical gate strategy based on Trucount tubes (Becton-Dickinson, San Jose, CA, USA). Neutrophils were purified from lysed buffy coats using StemSep negative selection system. To this purpose, 100x10^6 mononuclear cells from lysed buffy coats were incubated with 100 µL of custom antibody cocktail for human granulocytes enrichment (Stem Cell Technologies) for 45 min on ice. In addition, cell suspensions were incubated with 60 µL of magnetic colloid for 30 minutes on ice. Finally, the samples were run through a 0.3-inch column matrix in a negative selection system in which the unwanted cells were immunomagnetically labelled and bound to the magnetic column. Neutrophils, after the separation, were collected in the column flowthrough without antibody bound to their surface. In order to obtain monocytes, human buffy coats were layered over a Ficoll-Paque density gradient and spun at 600 X g for 30 min with the brake off. The mononuclear cell-rich fractions were washed three times with PBS supplemented with 2% foetal bovine serum (FBS) and 2 mM EDTA. Cell viability was assessed by analysis of light scatter properties, and cell count was performed using a logical gate strategy based on Trucount tubes (Becton-Dickinson). A custom antibody cocktail for human monocyte enrichment (Stem Cells Technologies) was used for immunomagnetic negative selection of monocytes. Mononuclear cells were incubated as above described for neutrophils. Both neutrophils and monocytes were resuspended in 5.0 mL of RPMI-1640 (Sigma-Aldrich, St Louis, MO, USA) without phenol red containing 10% heat-treated FBS. Calcein AM (Molecular Probes, Eugene, OR, USA) was added to the cell suspensions (5.0 mL) at a concentration of 5 µg/mL and the cells were incubated for 30 min at 37°C. Cell suspensions were washed twice with PBS and then resuspended in RPMI-FBS to the desired concentration.
# (§2) Measurement of leukocytes migration-The chemotaxis assay of monocytes and neutrophils (90-95% of purity) was performed in 96-well disposable chemotaxis chambers (Neuroprobe, Gaithersburg, MD, USA) using polyvinyl-pyrrolidone-free polycarbonate membranes with an […] pore size for monocytes and with a […] pore size for neutrophils. Chemotaxis was measured by fluorescence detection, using the calcein fluorescence signal. The fluorescence was read in a microplate fluorescence reader (Victor 3 1420 Multilabel Counter, Perkin Elmer) with excitation/emission wave-length settings of 485/530 nm. We calculated the migration index as the ratio between the sample mean fluorescence (after subtraction of the negative control mean fluorescence)/positive control mean fluorescence. Each assay was performed in quadruplicate.
# neutrophils = assay: as above; type: cell-based, human
# Description: as §1, §2
# [1] = system: Escherichia coli ATCC 25922; assay: Colony-forming unit (CFU) assay of antibacterial activity with NaCl dependence; type: cell-based; conditions: 200 mM NaCl compared to absence of salt
# Description: (§3) Colony-forming unit (CFU) assay of the antibacterial activity of the peptides against P.aeruginosa ATCC (American Type Culture Collection, Manassas, VA, USA) 27853, Enterococcus faecalis ATCC 29212 and Escherichia coli ATCC 25922 was performed. The strains were grown in aerobic conditions in tryptic soy broth (Difco Laboratories, Detroit, MI, USA) at 37°C. Cells from exponential-phase cultures were centrifuged, washed and suspended to a density of 1 x 10^5 CFU/mL in sterile 10 mM potassium phosphate buffer, pH 7.4, and incubated in the presence of the peptides. The incubation time was 2 h at 37°C. […] For salt dependence assay, NaCl in a range of concentrations potentially present in the airway surface fluid of normal subjects and CF patients (33), i.e., 0, 50, 100 and 200 mM NaCl, were included in the incubation buffer. The cells were then diluted serially in the same buffer, spread on tryptone-yeast (Difco Laboratories) plates and the colonies were counted after 18 h at 37°C. Each assay was performed in triplicate. Bactericidal activity (mean and SD of three assays) is expressed as the ratio between colonies counted and the number of colonies on a control plate.
# P.aeruginosa ATCC 27853 = assay: as above; type: cell-based
# Description: as §3
# [2] = system: Enterococcus faecalis ATCC 29212; assay: as above; type: cell-based; conditions: 200 mM NaCl compared to absence of salt
# Description: as §3
substance,measurement,setting,value
"GIINTLQKYYCRVRGGRCAVLSCLPKEEQIGKCSTRGRKCCRRKK-OH (cysteines drawn unpaired) [hBD3 wt, reference compound]",% of infectivity,HSV-1; cell pre-exposure,14.5±2.3%
same,% of infectivity,HSV-1; co-exposure,23.4±2.5%
same,inhibition of HSV infectivity,"HSV-1; co-exposure, peptide 50 µM, reduced form",100%
same,% of infectivity,HSV-1; virus pre-incubation,45±1.5%
same,"chemotactic activity, effect of NaCl",monocytes; 200 mM NaCl,comparable to that obtained at 100 mM NaCl
same,"chemotactic activity, effect of NaCl","monocytes; NaCl between 100 and 150 mM, p<0.001",significantly increased
same,chemotactic activity compared to wild-type hBD1,monocytes; peptide 1.25 µM,significantly higher
same,"chemotactic activity, effect of NaCl","neutrophils; NaCl from 100 to 150 mM, p<0.001",significantly reduced
same,chemotactic activity compared to wild-type hBD1,neutrophils; peptide 1.25 µM,significantly lower activity
same,"antibacterial activity, effect of NaCl",[1],significantly inhibited
same,"antibacterial activity, effect of NaCl","P.aeruginosa ATCC 27853; peptide 2.5 µM, 50 mM NaCl versus 0 mM NaCl",unaffected
same,"antibacterial activity, effect of NaCl","P.aeruginosa ATCC 27853; peptide 2.5 µM, 100 mM NaCl versus 0 mM NaCl, p<0.01",slightly inhibited
same,"antibacterial activity, effect of NaCl","P.aeruginosa ATCC 27853; peptide 2.5 µM, 200 mM NaCl versus 0 mM NaCl, p<0.001",greatly inhibited
same,"antibacterial activity, effect of NaCl","P.aeruginosa ATCC 27853; peptide 12.5 µM, 200 mM NaCl versus 0 mM NaCl, p<0.001",strongly inhibited
same,"antibacterial activity, effect of NaCl",[2],significantly inhibited
